Measured values reported in patent US20030212006A1, “Method for reducing free radical formation in healthy individuals undergoing hypoxic exercise and medical conditions with increased oxygen free radicals” (priority 2002, published 2003).

Columns and labels:
Type in all cases: in vivo, human
[1] = Urinary MDA after a single cycling bout under hypoxic conditions (16% oxygen), crossover trial; conditions: 7 grams ribose in 250 mL water before and after exercise; compared to the placebo; n=7 subjects; p=0.01
Description: (§1) Seven healthy, moderately to highly conditioned subjects volunteered to participate in this randomized, blinded, crossover trial. All subjects were between the ages of 23 and 41 years of age, and each subject cycled in two distinct trial arms, a ribose phase and a control phase. One week separated each trial arm. Subjects ingested either 7 grams of ribose in 250 mL of water or just plain water, five minutes prior to the start of exercise and again within five minutes following exercise. The scheduled exercise was 25 minutes of cycling at a workload relating to the lactic acid threshold. Subjects inhaled a hypoxic gas mixture of 16% oxygen and 84% nitrogen through a one-way breathing valve during the exercise bout. Following the cycling exercise, subjects sat quietly for 60 minutes and breathed room air during the recovery phase. All tests were conducted at room temperature. […] A whole blood sample was analyzed for hemoglobin. […] Each frozen plasma sample was analyzed for total protein and uric acid levels. Plasma samples were also analyzed for reduced glutathione levels (GSH kit, Oxis Research, Portland, Oreg.) and volumes were corrected for potential fluid loss by measuring total protein values. The frozen urine samples were analyzed for MDA (MDA kit, Oxis Research, Portland, Oreg.). […]

[2] = Reduced plasma glutathione (GSH) after a single cycling bout under hypoxic conditions; conditions: 7 grams ribose before and after exercise; n=7 subjects; p=0.000
Description: as §1

[3] = Heart rate during a cycling bout under hypoxic conditions; conditions: n=7 subjects
Description: Seven healthy, moderately to highly conditioned subjects volunteered to participate in this randomized, blinded, crossover trial. All subjects were between the ages of 23 and 41 years of age, and each subject cycled in two distinct trial arms, a ribose phase and a control phase. One week separated each trial arm. Subjects ingested either 7 grams of ribose in 250 mL of water or just plain water, five minutes prior to the start of exercise and again within five minutes following exercise. The scheduled exercise was 25 minutes of cycling at a workload relating to the lactic acid threshold. Subjects inhaled a hypoxic gas mixture of 16% oxygen and 84% nitrogen through a one-way breathing valve during the exercise bout. Following the cycling exercise, subjects sat quietly for 60 minutes and breathed room air during the recovery phase. All tests were conducted at room temperature. The cardiovascular parameters of heart rate and oxygen pulse saturation (SpO2) were collected at 9 minutes, 17 minutes, and 25 minutes of exercise. Oxygen pulse saturation was collected with a Nonin pulse oximeter (Nonin Medical Inc., Plymouth, Minn.). […] The 4.8% vs. 7.5% represents heart rates of 175 beats per minute (bpm) and 181 bpm for ribose and placebo (n=7 subjects).

[4] = Subjective ranking of exercise and recovery by blinded subjects
Description: Seven healthy, moderately to highly conditioned subjects volunteered to participate in this randomized, blinded, crossover trial. All subjects were between the ages of 23 and 41 years of age, and each subject cycled in two distinct trial arms, a ribose phase and a control phase. One week separated each trial arm. Subjects ingested either 7 grams of ribose in 250 mL of water or just plain water, five minutes prior to the start of exercise and again within five minutes following exercise. The scheduled exercise was 25 minutes of cycling at a workload relating to the lactic acid threshold. Subjects inhaled a hypoxic gas mixture of 16% oxygen and 84% nitrogen through a one-way breathing valve during the exercise bout. Following the cycling exercise, subjects sat quietly for 60 minutes and breathed room air during the recovery phase. All tests were conducted at room temperature. […] During the control trial, subjects expressed strong desires to take a nap during the recovery period. Additionally, four of the subjects reported that after leaving the laboratory, they went home and took long (>2 hours) naps.

In the case of `O=C[C@H](O)[C@H](O)[C@H](O)CO` [ribose, D-ribose], the “Percent change in urine MDA” value [1] is reported as “significantly lower”, the “Percent change in plasma GSH” value [2] is reported as “significantly lower” and the Heart rate ([3]; during hypoxic exercise, placebo 181 bpm) is reported as 175 bpm. The “Percent change in heart rate during exercise (in words)” value ([3]; ribose supplementation vs placebo, p=0.03) was “significantly less”, the “Percent change in heart rate during exercise” value ([3]; ribose supplementation, placebo 7.5%) was 4.8% and the “Blinded subjects who ranked the exercise easier and felt they had a faster recovery period” value ([4]; after cycling when they ingested ribose) was 6 out of 7. For the same compound, the “Comments and symptoms observed during recovery” value ([4]; recovery after hypoxic cycling when ribose was ingested) was “decreased lethargy”.
